One compound from patent EP3357910A1, “COMPOUND FOR IN VIVO DIAGNOSIS OF A DYSFUNCTION OF ADRENAL GLANDS” (Julius-Maximilians-Universität Würzburg, priority 2017, dated 2018) can be followed below.

Assay [1] concerns the target T1, human aldosterone synthase (Homo sapiens, UniProt P19099).
T1 construct: expressed in transfected cells; host or cells: mice expressing human aldosterone synthase (humanized mice), in vivo
T1 sequence (P19099 25-503): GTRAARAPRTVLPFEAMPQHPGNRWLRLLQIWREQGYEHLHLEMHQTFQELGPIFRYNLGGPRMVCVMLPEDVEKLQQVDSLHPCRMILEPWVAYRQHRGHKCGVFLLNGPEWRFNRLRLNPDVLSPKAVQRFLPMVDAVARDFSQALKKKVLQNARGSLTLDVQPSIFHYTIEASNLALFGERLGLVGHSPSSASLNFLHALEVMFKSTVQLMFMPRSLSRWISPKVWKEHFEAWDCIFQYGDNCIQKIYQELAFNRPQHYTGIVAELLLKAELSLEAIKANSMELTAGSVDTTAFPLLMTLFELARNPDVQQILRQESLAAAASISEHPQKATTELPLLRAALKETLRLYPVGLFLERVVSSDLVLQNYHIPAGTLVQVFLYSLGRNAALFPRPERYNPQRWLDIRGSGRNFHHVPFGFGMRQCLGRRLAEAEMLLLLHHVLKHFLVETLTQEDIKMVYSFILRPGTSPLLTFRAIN
The assay is described as follows: In vivo evaluation of aldosterone synthesis in mice expressing human aldosterone synthase (Fig. 10). Set-up: species or system mouse. As to conditions: i.v., 1 h after injection. How it is done: An in vivo evaluation of the influence of several substances and conditions and one compound according to the invention on human aldosterone synthase was performed using mice expressing human aldosterone synthase.
Detection of inhibition of aldosterone synthesis is facilitated by a high aldosterone level. Therefore, the influence of a low-sodium-diet, of drinking water with high concentration of potassium for 24 h before start of the experiment, and of the age and sex of the mice was investigated in order to find out conditions resulting in a high aldosterone level. The result was that drinking water with a high concentration of potassium ions for 24 h before start of the experiment is able to increase the aldosterone level. The secretion of aldosterone varied with the age of the mice. Sex of the mice had no significant effect.

In assay [2] the target is T2, CYP11 B1 (Homo sapiens, UniProt P15538).
T2 sequence (P15538 25-503): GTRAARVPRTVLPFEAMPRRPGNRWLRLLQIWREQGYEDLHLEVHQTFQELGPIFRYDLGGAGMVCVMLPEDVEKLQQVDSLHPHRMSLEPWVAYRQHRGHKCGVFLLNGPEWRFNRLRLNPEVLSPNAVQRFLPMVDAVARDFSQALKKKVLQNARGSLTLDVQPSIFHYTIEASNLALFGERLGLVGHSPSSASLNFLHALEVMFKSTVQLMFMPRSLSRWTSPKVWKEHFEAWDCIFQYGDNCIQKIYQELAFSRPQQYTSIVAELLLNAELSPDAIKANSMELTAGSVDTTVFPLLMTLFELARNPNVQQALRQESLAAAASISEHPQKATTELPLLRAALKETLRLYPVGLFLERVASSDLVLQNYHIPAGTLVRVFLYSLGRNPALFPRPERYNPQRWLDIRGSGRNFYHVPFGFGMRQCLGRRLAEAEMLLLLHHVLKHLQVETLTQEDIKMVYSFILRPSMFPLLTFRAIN
The assay is described as follows: Inhibition of CYP11 B1 in Y1-CYP11 B1 cells (cortisol radioimmunoassay). To be noted: Y1-Cells stably transfected with human CYP11 B1 gene; 1 µM RSS substrate; 48 hours. Also noted: expressed in transfected cells; host or cells: murine Y1 adrenal adenocarcinoma cells (Y1-CYP11 B1 cells). The class given is cell-based. How it is done: (§1) Y-1 is a continuous epithelial cell line derived from a murine adrenal adenocarcinoma. Y-1-cells are in the following designated "Y1-cells". They were obtained from CLS Cell Lines Service GmbH, Dr.Eckener-Str. 8, 69214 Eppelheim, Germany under order number 0477 MA. They can also be obtained from ATCC under ATCC number CCL-79. Y1-cells stably transfected with human CYP11 B1 gene (Y1-CYP11 B1 cells) and Y1-cells stably transfected with human CYP11 B2 gene (Y1-CYP11 B2 cells) were cultured on 6-well plates by seeding 5 x 10^5 cells per well in 2 ml of culture medium. The enzyme reaction was started after 24 hours by addition of 1 ml culture medium containing either 1 µM RSS ([…]) or 1µM DOC (Deoxycorticosteronacetat) as substrate and the corresponding inhibitor at concentrations between 0.1 nM - 10 µM followed by incubation for 48 hours. RSS and DOC were dissolved in ethanol prior to addition to the culture medium. RSS and DOC are precursors of cortisol and aldosterone, respectively. […] Y1-Cyp11 B1 and Y1-Cyp11 B2 cells treated in the same way but without inhibitor served as controls.
(§2) Concentrations of cortisol and aldosterone in the supernatants of the cells were determined by commercially available radioimmunoassays (DPC Biermann, Bad Nauheim, Germany; IBL international, Hamburg, Germany). The intraassay variance of both assays was <8%, the interassay variance <12%.
(§3) The IC50 values are calculated according to the following general equation: IC50 = (1+([S])/(Km))⋅Ki [formula]
(§4) S = Substrate concentration, Km = Michaelis-Menten constant, Ki = Dissociation constant.
(§5) IC50 values determined by use of Y1-CYP11 B1 cells are designated as "IC50CYP11 B1" and IC50 values determined by use of Y1-CYP11 B2 cells are designated as "IC50CYP11 B2". A selectivity factor was calculated by the following formula: IC50CYP11 B1/IC50CYP11 B2

Assay [3] deals with T2, CYP11 B1. The assay is described as follows: Indirect evaluation of CYP11 B1 inhibition in NCI-H295 cells (cortisol radioimmunoassay). The class given is cell-based. Set-up: The cells contain the whole cascade of enzymes for producing these hormones; host or cells: NCI-H295. As to conditions: 48 hours. How it is done:
(§6) For indirect evaluation of inhibition of CYB11 B1 and CYP11 B2 by different inhibitors, cells of the adrenocortical cell line NCI-H295 were cultured on 6-well plates by seeding 1x10^6 cells per well. NCI-H295 cells were obtained from ATCC (American Type Culture Collection) under ATCC number CRL-10296 via LGC Standards GmbH - Germany Office, Mercatorstr. 51, 46485 Wesel, Germany. NCI-H295 cells can also be obtained from Bioresource Collection and Research Centre (BCRC), 331, Shih-Pin Rd., Hsinchu 30062, Taiwan under BCRC number 60354. NCI-H295 cells produce cortisol as well as aldosterone. The cells contain the whole cascade of enzymes for producing these hormones. […] NCI-H295 cells treated in the same way but without inhibitor served as controls.
as §2, §3, §4

Assay [4] concerns human cryosections of normal adrenal gland and conn-adenomas. Kind of assay: Binding of 18F-labelled compounds to human cryosections (Fig. 5). As to conditions: 18F-labelled compound, 0.1 MBq, with or without 10µM of the corresponding nonradioactive compound. How it is done: The binding of the ^18F-labelled compounds no. 188, 189, and 191 to human cryosections of normal adrenal gland and conn-adenomas was studied. The meaning of the abbreviations is as follows: nNN = normal adrenal gland, APA = aldosterone producing adenoma, CPA = cortisol producing adenoma, ACC = adrenocortical carcinoma, IMTO = ^125I-Iodometomidate (an established tracer compound), A= 0.1 MBq of the radioactive compound + 10µM of the corresponding nonradioactive compound, B= 0.1 MBq of the radioactive compound.
Corresponding hematoxilin-eosin (HE) stained slices enlarged by a factor of 2.5 and 5, respectively are shown on the right side of Fig. 5.

Assay [5] deals with T3, CYP11 B2 (Homo sapiens, UniProt P19099).
T3 sequence (P19099 25-503): T1 sequence (P19099 25-503)
The assay is described as follows: Indirect evaluation of CYP11 B2 inhibition in NCI-H295 cells (aldosterone radioimmunoassay). Format: cell-based. Set-up: The cells contain the whole cascade of enzymes for producing these hormones; host or cells: NCI-H295. How it is done:
as §6, §2, §3, §4

For assay [6], the target named is T3, CYP11 B2. The assay is described as follows: Inhibition of CYP11 B2 in Y1-CYP11 B2 cells (aldosterone radioimmunoassay). The class given is cell-based. Also noted: expressed in transfected cells; host or cells: murine Y1 adrenal adenocarcinoma cells (Y1-CYP11 B2 cells). How it is done: as §1, §2, §3, §4, §5

One may read the IC50 as the midpoint of a concentration-inhibition curve. Turning to `N#Cc1ccc(-c2cncc(C3OCCO3)c2)cc1F` [compound 191], the “inhibition of the secretion of aldosterone” value in assay [1] is listed as “potent inhibition of the secretion of aldosterone”. Moreover, the IC50 at CYP11 B1 [2] was 40.1 ± 16.2 nM; at CYP11 B1 [3] it was 15.5 ± 8.1 nM; on CYP11 B2 [5] (48 hours), 1.1 ± 0.5 nM; on CYP11 B2 [6] (Y1-Cells stably transfected with human CYP11 B2 gene, 1µM DOC substrate, 48 hours), 0.98 ± 0.35 nM. In addition, the “significant and specific binding” value in assay [4] is “best results with respect to a significant and specific binding”. For the same compound, the Selectivity factor was found to be 13.1 at CYP11 B2 [5] (IC50 CYP11 B1/IC50 CYP11 B2) and 40.1 on CYP11 B2 [6] (Y1-Cells, IC50CYP11 B1/IC50CYP11 B2).
